Measurements: ChEMBL document CHEMBL1138233, “New iantherans from the marine sponge Ianthella quadrangulata: novel agonists of the P2Y(11) receptor” (J Med Chem, 2007)
The source made the active and inactive calls. No cut-off for these calls is given here.

How the values were obtained:
[1] = target: T1, P2Y purinoceptor 11 (Homo sapiens) (UniProt Q96G91); assay: Agonist activity at P2Y11 receptor expressed in 1321N1 cells assessed as cytosolic calcium level at 10 uM relative to GTPgammaS control; format: functional, cell-based
T1 sequence (whole entry): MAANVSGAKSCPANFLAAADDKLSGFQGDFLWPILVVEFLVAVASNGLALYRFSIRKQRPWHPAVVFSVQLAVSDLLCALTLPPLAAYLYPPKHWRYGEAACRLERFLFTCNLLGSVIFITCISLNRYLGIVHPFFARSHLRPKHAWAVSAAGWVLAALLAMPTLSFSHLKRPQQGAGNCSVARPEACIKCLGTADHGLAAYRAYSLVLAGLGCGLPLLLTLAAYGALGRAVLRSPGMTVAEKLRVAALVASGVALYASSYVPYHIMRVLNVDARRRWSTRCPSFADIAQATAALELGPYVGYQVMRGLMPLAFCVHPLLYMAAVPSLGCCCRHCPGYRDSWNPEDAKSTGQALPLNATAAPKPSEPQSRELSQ

[2] = target: P2Y purinoceptor 1 (Homo sapiens) (UniProt P47900); assay: Agonist activity at P2Y1 receptor expressed in 1321N1 cells assessed as cytosolic calcium level at 10 uM relative to GTPgammaS control; format: functional, cell-based
Sequence of P2Y purinoceptor 1 (Homo sapiens) (P47900 whole entry): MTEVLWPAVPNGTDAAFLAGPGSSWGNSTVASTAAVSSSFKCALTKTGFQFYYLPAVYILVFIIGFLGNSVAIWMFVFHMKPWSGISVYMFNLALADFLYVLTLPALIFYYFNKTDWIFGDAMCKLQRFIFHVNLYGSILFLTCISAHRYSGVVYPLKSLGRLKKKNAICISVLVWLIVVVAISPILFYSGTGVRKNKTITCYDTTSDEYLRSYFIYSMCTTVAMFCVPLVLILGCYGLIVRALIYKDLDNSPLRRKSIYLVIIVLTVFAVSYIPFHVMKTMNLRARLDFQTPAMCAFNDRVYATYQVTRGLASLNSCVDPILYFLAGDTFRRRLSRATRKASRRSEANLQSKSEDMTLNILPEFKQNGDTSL

[3] = Toxicity against 1321N1 cells expressing P2Y2 receptor at 1 to 10 uM; format: cell-based; details: human, 1321-n1, 10 µM
[4] = target: T1, P2Y purinoceptor 11 (Homo sapiens); assay: Agonist activity at P2Y11 receptor expressed in 1321N1 cells assessed as calcium mobilization in presence of 10 uM NF340 at 3.6 uM; format: functional, cell-based
[5] = Toxicity against 1321N1 cells expressing P2Y11 receptor at 1 to 10 uM; format: cell-based; details: human, 1321-n1, 10 µM
[6] = Toxicity against 1321N1 cells expressing P2Y1 receptor at 1 to 10 uM; format: cell-based; details: human, 1321-n1, 10 µM
[7] = target: T2, P2Y purinoceptor 2 (Homo sapiens, UniProt P41231); assay: Agonist activity at P2Y2 receptor expressed in 1321N1 cells assessed as cytosolic calcium level at 10 uM relative to GTPgammaS control; format: functional, cell-based
T2 sequence (P41231 whole entry): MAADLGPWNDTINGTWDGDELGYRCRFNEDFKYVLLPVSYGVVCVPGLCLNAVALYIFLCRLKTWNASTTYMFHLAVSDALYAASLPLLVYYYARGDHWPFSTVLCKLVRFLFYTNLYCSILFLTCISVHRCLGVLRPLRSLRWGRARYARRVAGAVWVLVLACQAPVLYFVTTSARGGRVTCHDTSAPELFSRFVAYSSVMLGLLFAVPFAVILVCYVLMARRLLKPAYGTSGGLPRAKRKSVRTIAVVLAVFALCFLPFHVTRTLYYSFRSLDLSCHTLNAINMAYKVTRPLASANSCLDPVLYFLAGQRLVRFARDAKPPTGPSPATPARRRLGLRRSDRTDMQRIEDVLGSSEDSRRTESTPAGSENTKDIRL

[8] = target: T3, P2Y purinoceptor 11 (Homo sapiens, UniProt Q96G91); assay: Agonist activity at P2Y11 receptor expressed in 1321N1 cells assessed as cytosolic calcium level; format: functional, cell-based
T3 sequence (Q96G91 whole entry): T1 sequence (whole entry)

[9] = target: T1, P2Y purinoceptor 11 (Homo sapiens); assay: Agonist activity at P2Y11 receptor expressed in 1321N1 cells assessed as cytosolic calcium level at 1 uM relative to GTPgammaS control; format: functional, cell-based
[10] = target: T2, P2Y purinoceptor 2; assay: Agonist activity at P2Y2 receptor expressed in 1321N1 cells assessed as cytosolic calcium level; format: functional, cell-based
[11] = target: P2Y purinoceptor 1 (Homo sapiens) (UniProt P47900); assay: Agonist activity at P2Y1 receptor expressed in 1321N1 cells assessed as cytosolic calcium level at 1 uM relative to GTPgammaS control; format: functional, cell-based
[12] = target: T2, P2Y purinoceptor 2; assay: Agonist activity at P2Y2 receptor expressed in 1321N1 cells assessed as cytosolic calcium level at 1 uM relative to GTPgammaS control; format: functional, cell-based
[13] = target: T1, P2Y purinoceptor 11 (Homo sapiens); assay: Agonist activity at P2Y11 receptor expressed in 1321N1 cells assessed as calcium mobilization in presence of 10 uM NF340 at 1 uM; format: functional, cell-based

SMILES	Activity [1]	Activity [2]	Activity [4]	Activity [7]	EC50 [8] [nM]	Activity [9]	EC50 [10] [nM]	Activity [11] [%]	Activity [12] [%]	Activity [13]	Activity [3]	Activity [5]	Activity [6]
O=S(=O)([O-])OC(=C\c1cc(Br)c2oc(-c3ccc(O)c(Br)c3)cc2c1)/C(=C/c1cc(Br)c2oc(-c3ccc(O)c(Br)c3)cc2c1)OS(=O)(=O)[O-].[Na+].[Na+] [ISO-IANTHERAN A]	Active	Active	inactive	Active	1290	Active	–	–	–	–	Non-toxic	Non-toxic	Non-toxic
O=c1ccn([C@@H]2O[C@H](COP(=O)(O)OP(=O)(O)OP(=O)(O)O)[C@@H](O)[C@H]2O)c(=O)[nH]1 [URIDINE TRIPHOSPHATE]	–	–	–	–	–	–	110	–	–	–	–	–	–
Nc1ncnc2c1ncn2[C@@H]1O[C@H](CO[P@](=O)(O)O[P@](=O)(O)O[P@@](=O)(O)S)[C@@H](O)[C@H]1O	–	–	–	–	63.1	–	–	–	–	–	–	–	–

Second part, led by results:

Activity [1]	Activity [2]	Activity [4]	Activity [7]	EC50 [8] [nM]	Activity [9]	EC50 [10] [nM]	Activity [11] [%]	Activity [12] [%]	Activity [13]	SMILES	Activity [3]	Activity [5]	Activity [6]
114%	< 5%	–	< 5%	479	94.6%	–	< 5	< 5	inactive	O=C(O)c1c(-c2ccc(O)c(Br)c2)oc2c(Br)cc(/C=C(OS(=O)(=O)[O-])/C(=C/c3cc(Br)c4oc(-c5ccc(O)c(Br)c5)cc4c3)OS(=O)(=O)[O-])cc12.[Na+].[Na+] [8-CARBOXY-ISO-IANTHERAN A]	Non-toxic	Non-toxic	Non-toxic
< 37.5%	< 37.5%	–	< 37.5%	–	–	–	–	–	–	COc1c(Br)cc(/C=C(\OS(=O)(=O)[O-])C(=O)O)cc1Br.[Na+]	Non-toxic	Non-toxic	Non-toxic
< 37.5%	< 37.5%	–	< 37.5%	–	–	–	–	–	–	COc1c(Br)cc(CC(=O)O)cc1Br	Non-toxic	Non-toxic	Non-toxic
